This is an account of results in ChEMBL document CHEMBL1155961, “Novel 4-aryl-pyrido[1,2-c]pyrimidines with dual SSRI and 5-HT1A activity: part 2” (Eur J Med Chem, 2009).

The structures appear in SMILES notation. Calls of active or inactive are those of the source. The calls are words filed in the database; no cut-off is given here.

The Ki is the equilibrium dissociation constant of an inhibitor or competing ligand from its target.

For experiment [1], the system named is Mus musculus. Nature of the experiment: Effect on hypothermia in Swiss albino mouse assessed as change in rectal body temperature at 20 mg/kg, ip after 60 mins by inducible hypothermia test. Format: functional, organism-based. Also noted: dose 20 mg/kg.
Experiment [2] deals with Mus musculus. Nature of the experiment: Effect on hypothermia in Swiss albino mouse assessed as change in rectal body temperature at 20 mg/kg, ip dosed 15 mins after 0.1 mg/kg, sc WAY 100635 challenge measured after 60 mins by inducible hypothermia test. Format: functional, organism-based.
In experiment [3] the test system is Mus musculus. As to the kind of experiment: Antidepressant activity in Swiss albino mouse assessed as reduction of immobility time at 10 mg/kg, ip administered 30 mins before test measured 6 mins test session after 2 mins habituation period by forced swimming test. Type of experiment: functional.
The target of experiment [4] is T1, 5-hydroxytryptamine receptor 1A (Rattus norvegicus, UniProt P19327).
T1 sequence (P19327 whole entry): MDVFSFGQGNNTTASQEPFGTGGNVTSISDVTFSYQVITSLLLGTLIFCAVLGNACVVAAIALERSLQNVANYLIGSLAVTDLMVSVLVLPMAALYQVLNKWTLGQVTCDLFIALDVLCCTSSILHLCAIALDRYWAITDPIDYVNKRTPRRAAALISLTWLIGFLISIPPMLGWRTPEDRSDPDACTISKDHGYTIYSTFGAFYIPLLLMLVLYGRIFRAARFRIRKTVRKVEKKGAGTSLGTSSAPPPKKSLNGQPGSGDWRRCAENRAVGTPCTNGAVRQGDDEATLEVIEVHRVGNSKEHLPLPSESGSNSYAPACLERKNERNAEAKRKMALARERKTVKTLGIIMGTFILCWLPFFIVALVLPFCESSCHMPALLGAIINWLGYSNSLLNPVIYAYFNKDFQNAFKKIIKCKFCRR
Nature of the experiment: Displacement of [3H]8-OH-DPAT from 5-HT1A receptor in rat hippocampus. Format: tissue-based. In general terms: Loss of bound radioactivity is the signal in a displacement assay; it reports binding, not function.

In experiment [5] the test system is Mus musculus. As to the kind of experiment: Effect on hypothermia in Swiss albino mouse assessed as change in rectal body temperature at 5 mg/kg, ip after 60 mins by inducible hypothermia test. Format: functional, organism-based. The arrangement: dose 5 mg/kg.
Experiment [6] concerns Mus musculus. As to the kind of experiment: Effect on hypothermia in Swiss albino mouse assessed as change in rectal body temperature at 5 mg/kg, ip after 90 mins by inducible hypothermia test. Type of experiment: functional, organism-based. Also noted: dose 5 mg/kg.
Experiment [7] deals with Mus musculus. Nature of the experiment: Effect on hypothermia in Swiss albino mouse assessed as change in rectal body temperature at 20 mg/kg, ip after 120 mins by inducible hypothermia test. Format: functional, organism-based. Also noted: dose 20 mg/kg.
In experiment [8] the test system is Mus musculus. As to the kind of experiment: Effect on hypothermia in Swiss albino mouse assessed as change in rectal body temperature at 5 mg/kg, ip after 30 mins by inducible hypothermia test. Format: functional, organism-based. The arrangement: dose 5 mg/kg.
Experiment [9] has as its system Mus musculus. As to the kind of experiment: Effect on hypothermia in Swiss albino mouse assessed as change in rectal body temperature at 10 mg/kg, ip after 30 mins by inducible hypothermia test. Format: functional, organism-based. Also noted: dose 10 mg/kg.
In experiment [10] the test system is Mus musculus. Nature of the experiment: Effect on hypothermia in Swiss albino mouse assessed as change in rectal body temperature at 20 mg/kg, ip after 90 mins by inducible hypothermia test. Format: functional, organism-based. The arrangement: dose 20 mg/kg.
Experiment [11] relates to Mus musculus. Nature of the experiment: Effect on hypothermia in Swiss albino mouse assessed as change in rectal body temperature at 20 mg/kg, ip dosed 15 mins after 0.1 mg/kg, sc WAY 100635 challenge measured after 30 mins by inducible hypothermia test. Type of experiment: functional, organism-based.
Experiment [12] deals with Mus musculus. As to the kind of experiment: Effect on hypothermia in Swiss albino mouse assessed as change in rectal body temperature at 10 mg/kg, ip after 60 mins by inducible hypothermia test. Format: functional, organism-based. Also noted: dose 10 mg/kg.
In experiment [13] the test system is Mus musculus. Nature of the experiment: Effect on hypothermia in Swiss albino mouse assessed as change in rectal body temperature at 5 mg/kg, ip after 120 mins by inducible hypothermia test. The arrangement: dose 5 mg/kg. Type of experiment: functional, organism-based.
The test system of experiment [14] is Mus musculus. Nature of the experiment: Effect on hypothermia in Swiss albino mouse assessed as change in rectal body temperature at 10 mg/kg, ip after 90 mins by inducible hypothermia test. Type of experiment: functional, organism-based. The arrangement: dose 10 mg/kg.
For experiment [15], the system named is Mus musculus. Nature of the experiment: Effect on hypothermia in Swiss albino mouse assessed as change in rectal body temperature at 20 mg/kg, ip after 30 mins by inducible hypothermia test. Format: functional, organism-based. Also noted: dose 20 mg/kg.
The target of experiment [16] is Sodium-dependent serotonin transporter (Rattus norvegicus, UniProt P31652). Nature of the experiment: Displacement of [3H]citalopram from SERT in rat cerebral cortex by liquid scintillation counting. Type of experiment: tissue-based.
Sodium-dependent serotonin transporter, sequence (P31652 whole entry): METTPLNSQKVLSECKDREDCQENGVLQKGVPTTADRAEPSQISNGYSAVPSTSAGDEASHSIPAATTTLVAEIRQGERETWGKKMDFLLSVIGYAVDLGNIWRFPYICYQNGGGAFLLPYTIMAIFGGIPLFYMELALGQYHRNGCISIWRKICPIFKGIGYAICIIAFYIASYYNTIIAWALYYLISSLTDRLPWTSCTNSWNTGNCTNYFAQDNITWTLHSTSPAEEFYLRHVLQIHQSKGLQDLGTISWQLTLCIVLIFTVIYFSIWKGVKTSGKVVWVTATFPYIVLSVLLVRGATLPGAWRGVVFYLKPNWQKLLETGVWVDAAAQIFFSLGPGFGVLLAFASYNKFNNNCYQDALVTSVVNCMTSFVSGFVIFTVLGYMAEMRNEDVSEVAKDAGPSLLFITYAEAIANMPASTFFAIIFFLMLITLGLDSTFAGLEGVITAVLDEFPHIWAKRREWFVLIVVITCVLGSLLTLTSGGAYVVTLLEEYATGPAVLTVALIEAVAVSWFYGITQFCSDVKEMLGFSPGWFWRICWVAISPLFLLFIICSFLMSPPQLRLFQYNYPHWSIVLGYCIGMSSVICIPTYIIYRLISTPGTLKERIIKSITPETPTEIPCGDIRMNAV
Experiment [17] concerns Mus musculus. Nature of the experiment: Effect on hypothermia in Swiss albino mouse assessed as change in rectal body temperature at 10 mg/kg, ip after 120 mins by inducible hypothermia test. The arrangement: dose 10 mg/kg. Format: functional, organism-based.
In experiment [18] the test system is Mus musculus. As to the kind of experiment: Antidepressant activity in Swiss albino mouse assessed as reduction of immobility time at 20 mg/kg, ip administered 30 mins before test measured 6 mins test session after 2 mins habituation period by forced swimming test. Type of experiment: functional.
Experiment [19] has as its system Mus musculus. As to the kind of experiment: Effect on hypothermia in Swiss albino mouse assessed as change in rectal body temperature at 10 mg/kg, ip dosed 15 mins after 0.1 mg/kg, sc WAY 100635 challenge measured after 30 mins by inducible hypothermia test. Format: functional, organism-based.
Experiment [20] relates to Mus musculus. Nature of the experiment: Effect on hypothermia in Swiss albino mouse assessed as change in rectal body temperature at 10 mg/kg, ip dosed 15 mins after 0.1 mg/kg, sc WAY 100635 challenge measured after 60 mins by inducible hypothermia test. Format: functional, organism-based.
For experiment [21], the system named is Mus musculus. As to the kind of experiment: Antidepressant activity in Swiss albino mouse assessed as reduction of immobility time at 5 mg/kg, ip administered 30 mins before test measured 6 mins test session after 2 mins habituation period by forced swimming test. Format: functional, organism-based. The arrangement: dose 5 mg/kg.
Experiment [22] has as its system Mus musculus. As to the kind of experiment: Effect on spontaneous locomotor activity in Swiss albino mouse assessed as number of light-beam crossings in actiometers pretreated for 30 mins at 10 mg/kg, ip measured during 30 mins post drug dose. Format: functional. The settings on record: route intraperitoneal.
Experiment [23] has as its system Mus musculus. As to the kind of experiment: Effect on spontaneous locomotor activity in Swiss albino mouse assessed as number of light-beam crossings in actiometers pretreated for 30 mins at 10 mg/kg, ip measured during 6 mins post drug dose. The settings on record: route intraperitoneal. Format: functional.
The species entered for experiment [24] is Mus musculus. The settings on record: Swiss albino, 20 mg/kg.
The species entered for experiment [25] is Mus musculus. The conditions noted are these: Swiss albino, 20 mg/kg. The source holds these as a separate data set.
The species named for experiment [26] is Mus musculus. The settings on record: Swiss albino, 20 mg/kg. This is another data set of the same source.
For experiment [27], the species on record is Mus musculus. The conditions noted are these: Swiss albino, 20 mg/kg. This is another data set of the same source.
The species named for experiment [28] is Mus musculus. The conditions noted are these: Swiss albino, 5 mg/kg.
Description: Effect on hypothermia in Swiss albino mouse assessed as change in rectal body temperature at 5 mg/kg, ip dosed 15 mins after 0.1 mg/kg, sc WAY 100635 challenge measured after 30 mins by inducible hypothermia test
The species entered for experiment [29] is Mus musculus. The conditions noted are these: Swiss albino, 2.5 mg/kg.
Description: Effect on hypothermia in Swiss albino mouse assessed as change in rectal body temperature at 2.5 mg/kg, ip after 30 mins by inducible hypothermia test
The species entered for experiment [30] is Mus musculus. The conditions noted are these: Swiss albino, 1.25 mg/kg.
Description: Effect on hypothermia in Swiss albino mouse assessed as change in rectal body temperature at 1.25 mg/kg, ip after 30 mins by inducible hypothermia test
The species named for experiment [31] is Mus musculus. The conditions noted are these: Swiss albino, 2.5 mg/kg. The source holds these as a separate data set.
Description: Effect on hypothermia in Swiss albino mouse assessed as change in rectal body temperature at 2.5 mg/kg, ip after 120 mins by inducible hypothermia test
The species named for experiment [32] is Mus musculus. The settings on record: Swiss albino, 1.25 mg/kg. This is another data set of the same source.
Description: Effect on hypothermia in Swiss albino mouse assessed as change in rectal body temperature at 1.25 mg/kg, ip after 90 mins by inducible hypothermia test
The species named for experiment [33] is Mus musculus. The conditions noted are these: Swiss albino, 1.25 mg/kg. The source holds these as a separate data set.
Description: Effect on hypothermia in Swiss albino mouse assessed as change in rectal body temperature at 1.25 mg/kg, ip after 120 mins by inducible hypothermia test
The species entered for experiment [34] is Mus musculus. The settings on record: Swiss albino, 1.25 mg/kg. The source holds these as a separate data set.
Description: Effect on hypothermia in Swiss albino mouse assessed as change in rectal body temperature at 1.25 mg/kg, ip after 60 mins by inducible hypothermia test
The species named for experiment [35] is Mus musculus. The settings on record: Swiss albino, 2.5 mg/kg. This is another data set of the same source.
Description: Effect on hypothermia in Swiss albino mouse assessed as change in rectal body temperature at 2.5 mg/kg, ip after 60 mins by inducible hypothermia test
The species named for experiment [36] is Mus musculus. The conditions noted are these: Swiss albino, 2.5 mg/kg. This is another data set of the same source.
Description: Effect on hypothermia in Swiss albino mouse assessed as change in rectal body temperature at 2.5 mg/kg, ip after 90 mins by inducible hypothermia test
The species named for experiment [37] is Mus musculus. The conditions noted are these: Swiss albino, 5 mg/kg. This is another data set of the same source.
Description: Effect on hypothermia in Swiss albino mouse assessed as change in rectal body temperature at 5 mg/kg, ip dosed 15 mins after 0.1 mg/kg, sc WAY 100635 challenge measured after 60 mins by inducible hypothermia test

Regarding `COc1ccc2[nH]cc(C3CCN(CCCCn4c(=O)c(-c5ccc(C)cc5)c5n(c4=O)CCCC5)CC3)c2c1`, the deltaT in experiment [1] was -1.3 °C; in experiment [2], -0.4 °C; in [5] it was -0.2 °C; in experiment [6], -0.1 °C; in [7], -0.7 °C; in experiment [8], -0.3 °C. In addition, the deltaT in [9] is -0.6 °C; in experiment [10], -0.8 °C; in [11], -0.4 °C; in [12] it was -0.4 °C; in experiment [13], -0.1 °C; in experiment [14] it was -0.2 °C. In addition, the deltaT in experiment [15] was -1.3 °C; in experiment [17], -0.1 °C. Moreover, the result in experiment [3] and in [18] was inactive. Further, the Ki turned out to be 23 nM in [4] and 136 nM in experiment [16].
As for `Cc1[nH]c2ccccc2c1C1CCN(CCCCn2c(=O)c(-c3ccc(Cl)cc3)c3n(c2=O)CCCC3)CC1`, the Ki worked out at 1500 nM in experiment [4] and 460 nM in experiment [16].
Regarding `Cc1[nH]c2ccccc2c1C1CCN(CCCCn2c(=O)c(-c3ccccc3Cl)c3n(c2=O)CCCC3)CC1`, the Ki in experiment [4] amounted to 2100 nM; in [16], 480 nM.
On to `O=c1c(-c2ccccc2F)c2n(c(=O)n1CCCCN1CCC(c3c[nH]c4ccccc34)CC1)CCCC2`, for which the deltaT in experiment [19] was -0.6 °C; in [20] it was -0.4 °C; in experiment [5] it was -0.2 °C; in experiment [6], -0.2 °C; in experiment [8], -0.3 °C; in [9] it was -1.2 °C. In addition, the deltaT in experiment [12] is -1 °C; in experiment [13], -0.1 °C; in experiment [14] it was -0.8 °C; in experiment [17], -0.5 °C. In addition, the Activity is on record as 27% in experiment [3] (route intraperitoneal), 333 in [22] and 217 in experiment [23]. Moreover, the Ki was 27.8 nM in experiment [4] and 102 nM in [16]. Also, the outcome in experiment [21] was inactive.
Consider `Cc1[nH]c2ccccc2c1C1CCN(CCCCn2c(=O)c(-c3ccc(F)cc3)c3n(c2=O)CCCC3)CC1`, for which the results for the Ki in experiment [4] and in [16] were 3200 nM and 116 nM, respectively.
As to `COc1ccc(-c2c3n(c(=O)n(CCCCN4CCC(c5c[nH]c6ccccc56)CC4)c2=O)CCCC3)cc1`, the deltaT in experiment [24] was -0.3 °C; in [1], -0.7 °C; in [5], -0.2 °C; in experiment [6] it was -0.2 °C; in experiment [7], -0.3 °C; in experiment [25], -0.5 °C. Further, the deltaT in experiment [8] was -0.5 °C; in experiment [9], -0.7 °C; in experiment [26], -0.2 °C; in [10] it was -0.4 °C; in experiment [12] it was -0.5 °C; in experiment [27] it was 0.6 °C. In addition, the deltaT in [13] is -0.1 °C; in [14] it was -0.4 °C; in experiment [15], -0.6 °C; in experiment [17], -0.3 °C. Further, the Ki worked out at 20.5 nM in experiment [4] and 71.6 nM in [16].
Consider `Cc1[nH]c2ccccc2c1C1CCN(CCCCn2c(=O)c(-c3ccccc3)c3n(c2=O)CCCC3)CC1`, for which the values for the Ki in [4] and in experiment [16] were 1400 nM and 274 nM, respectively.
For `COc1ccc2[nH]cc(C3CCN(CCCCn4c(=O)c(-c5ccc(Cl)cc5)c5n(c4=O)CCCC5)CC3)c2c1`, in that order: 14.6 nM and 222 nM.
`COc1ccc(-c2c3n(c(=O)n(CCCCN4CCC(c5c[nH]c6ccc(OC)cc56)CC4)c2=O)CCCC3)cc1`: the deltaT was -1.2 °C in experiment [28]; -0.8 °C in experiment [29]; -0.3 °C in experiment [30]; -0.5 °C in experiment [31]; -0.5 °C in experiment [5]; -0.4 °C in experiment [32]. In addition, the deltaT in experiment [6] was -0.3 °C; in [33], -0.2 °C; in experiment [34], -0.4 °C; in [35], -0.6 °C; in [8], -1.1 °C; in [36], -0.6 °C. Besides, the deltaT in experiment [13] is -0.1 °C; in [37], -0.9 °C. Moreover, the values for the Ki in experiment [4] and in experiment [16] were 10.4 nM and 83.5 nM, respectively.
